# Where a name gives a salt, the structure may show the parent alone. Read-outs that look alike come from different tables or passages of the source.
# Legend:
# [1] = literature (Barefield et al); cited from earlier work
# cells = conditions: in words; cited from earlier work
# [2] = cytotoxicity in MT-4 cells, MTT method; conditions: human
# HIV-2 (LAV-2 ROD) = assay: MT-4 cells challenged with HIV-2, viability by MTT method (antiviral activity); assay type: cell-based, Human Immunodeficiency Virus; conditions: for IC50: Human immunodeficiency virus 2, MT4, 120 h
# HIV-1 (HTLV-IIIB) = assay: microbe, parasite or virus in culture; assay type: cell-based
# [3] = octanol/buffer partition coefficient; assay type: physicochemical; conditions: for logD: octanol/buffer
# Text: The compounds were additionally studied to determine their partition coefficients as between octanol and water, in standard tests at various pH values. A partition coefficient greater than unity at pH 7-9 is generally considered to be a good indication that the compound will be absorbed through the upper gastrointestinal tract when dosed orally.
# solubility in water = assay type: physicochemical; conditions: dimer believed to be the meso 2R,2'S isomer, characterised by the applicant
# [4] = CC50, HIV-1 (IIIB) part of Table 1, 5 days at 37° C.
# [5] = CC50, HIV-2 (ROD) part of Table 1, 5 days at 37° C.
# [6] = Human immunodeficiency virus 1, IIIB, MT4, 120 h
# [7] = HIV-2 (ROD), MT-4 cells, 5 days at 37° C., read-out: IC50
# [8] = Human immunodeficiency virus 1, MT4, 120 h, HIV-1 (IIIB), MT-4 cells, 5 days at 37° C., read-out: IC50
Compound,"CC50 at 120 h [2, 4] [µg/mL]","CC50 at 120 h [2, 5] [µg/mL]",IC50 (HIV-2 (LAV-2 ROD)) [µg/mL],IC50 (HIV-1 (HTLV-IIIB); [6]) [µg/mL],logD ([3]; pH 8),logD ([3]; pH 9),"SI (Selectivity Index, ratio of CC50 to IC50) (HIV-1 (HTLV-IIIB); HIV-1 (IIIB), MT-4 cells)","SI (Selectivity Index, ratio of CC50 to IC50) (HIV-2 (LAV-2 ROD); HIV-2 (ROD), MT-4 cells)",other results
"C1CNCCNCCCNC(C2CNCCCNCCNCCCN2)CNC1 (stereo not drawn) [2,2'-dimer of cyclam]",,,,,,,,,solubility in water [1]: insoluble in water
Cc1cn([C@H]2C[C@H](N=[N+]=[N-])[C@@H](CO)O2)c(=O)[nH]c1=O [AZT],,,,,,,,,toxicity to cells (cells): high toxicity to cells
"c1cc2nc(c1)CNCCCN(Cc1ccc(CN3CCCNCc4cccc(n4)CNCCC3)cc1)CCCNC2 [Compound A, 7,7'-[1,4-Phenylenebis(methylene)]bis-3,7,11,17-tetraazabicyclo[13.3.1heptadeca-1(17),13,15-trienehexahydrobromide hexahydrate]",> 250,> 250,3.51,0.719,-0.963,0.713,,,
"Clc1cc2nc(c1)CNCCCN(Cc1ccc(CN3CCCNCc4cc(Cl)cc(n4)CNCCC3)cc1)CCCNC2 [Compound B, 7,7'-[1,4-Phenylenebis(methylene)]bis[15-chloro-3,7,11,17-tetraazabicyclo[13.3.1]heptadeca-1(17),13,15-triene]hexahydrobromide monoacetate]",12.5,,,0.89,0.588,1.46,14,,logD ([3]; pH 7): -1
"COc1cc2nc(c1)CNCCCN(Cc1ccc(CN3CCCNCc4cc(OC)cc(n4)CNCCC3)cc1)CCCNC2 [Compound C, 7,7'-[1,4-Phenylenebis(methylene)]bis[15-methoxy-3,7,11,17-tetraazabicyclo-[13.3.1]heptadeca-1(17),13,15-triene] hexahydrobromide dihydrate]",229,> 250,9.74,3.57,-0.959,-0.0605,64,,
"O=c1cc2[nH]c(c1)CNCCCN(Cc1ccc(CN3CCCNCc4cc(=O)cc([nH]4)CNCCC3)cc1)CCCNC2 [Compound D, 7,7'-[1,4-Phenylenebis(methylene)]bis-3,7,11,17-tetraazabicyclo-[13.3.1]-heptadeca-13,16-triene-15-one octahydrobromide]",> 218,> 250,> 250,> 218,-1.6,-0.638,< 1,< 1,
"c1cc2nc(c1)CCNCCN(Cc1ccc(CN3CCNCCc4cccc(n4)CCNCC3)cc1)CCNCC2 [Compound E, 7,7'-[1,4-Phenylenebis(methylene)]bis-4,7,10,17-tetraazabicyclo-[13.3.1]heptadeca-1(17),13,15-triene octahydrobromide tetrahydrate]",> 250,> 250,0.001,0.0014,-1.44,0.479,,,logD ([3]; pH 7): -2.4
"c1cc2nc(c1)CCNCCCN(Cc1ccc(CN3CCCNCCc4cccc(n4)CCNCCC3)cc1)CCCNCC2 [Compound F, 8,8'-[1,4-Phenylenebis(methylene)]bis-4,8,12,19-tetraazabicyclo[15.3.1]nonadeca-1(19),15,17-triene octahydrobromide heptahydrate]",199,171,,,,,336,102,IC50 (HIV-2 (LAV-2 ROD); [7]): 1.68 µg/mL; IC50 (HIV-1 (HTLV-IIIB); [8]): 0.59 µg/mL
"c1cc2nc(c1)CNCCN(Cc1ccc(CN3CCNCc4cccc(n4)CNCC3)cc1)CCNC2 [Compound G, 6,6'-[1,4'-Phenylenebis(methylene)]bis-3,6,9,15-tetraazabicyclo[11.3.1]pentadeca-1(15),11,13-triene hexahydromide trihydrate]",6,4.71,,,,,,31,IC50 (HIV-2 (LAV-2 ROD); [7]): 0.15 µg/mL; IC50 (HIV-1 (HTLV-IIIB); [8]): 0.62 µg/mL
"c1cc(CN2CCNCc3cccc(n3)CNCC2)cc(CN2CCNCc3cccc(n3)CNCC2)c1 [Compound H, 6,6'-[1,3-Phenylenebis(methylene)]bis-3,6,9,15-tetraazabicyclo[11.3.1]pentadeca-1(15),11,13-triene hexahydrobromide trihydrate]",32.1,30.7,,,,,309,1.12 × 10^4,IC50 (HIV-2 (LAV-2 ROD); [7]): 0.0027 µg/mL; IC50 (HIV-1 (HTLV-IIIB); [8]): 0.104 µg/mL
"c1cc(CN2CCCNCCOCCNCCC2)ccc1CN1CCCNCCOCCNCCC1 [Compound J, 8,8'-[1,4-Phenylenebis(methylene)]bis-1-oxa-4,8,12-triazatetradecane-hexahydro bromide trihydrate]",> 250,> 250,2.15,4.62,-1.92,-0.131,> 54,> 116,logD ([3]; pH 7): -2.52
"c1cc2nc(c1)CNCCN(Cc1ccc(CN3CCNCc4cccc(n4)CNCCNCc4cccc(n4)C3)cc1)Cc1cccc(n1)CNCCNC2 [Compound K, 17,17'-[1,4-Phenylene-bis(methylene)]bis-3,6,14,17,23,24-hexaazatricyclo[17.3.1.1^8,12] tetracosa-1(23),8,10,12(24),19,21-hexnene octahydrobromide]",4.59,5.89,5.89,4.59,-1.15,0.25,< 1,< 1,
"c1cc(CN2CCCNCCNCCCNCC2)ccc1CN1CCCNCCNCCCNCC1 [Compound L, 1,1'-[1,4-phenylenebis(methylene)]bis-1,4,8,11-tetraazacyclotetra-decane octahydrobromide dihydrate, reference compound]",> 250,> 250,,,,,,,"IC50 (HIV-2 (LAV-2 ROD); [7]): 0.009 µg/mL; IC50 (HIV-1 (HTLV-IIIB); Human immunodeficiency virus 1, IIIB, MT4, 120 h, read-out: IC50): 0.0068 µg/mL; octanol/buffer partition coefficient ([3]; pH 7): 0.0016; octanol/buffer partition coefficient ([3]; pH 8): 0.005; octanol/buffer partition coefficient ([3]; pH 9): 0.16"
"C1CNCCNCCCN[C@H]([C@H]2CNCCCNCCNCCCN2)CNC1 [meso 2R,2'S isomer]",,,,,,,,,solubility in water (solubility in water): soluble

# — patent US5698546A, “Cyclic polyamines” (Johnson Matthey Public Limted Company, priority 1994, dated 1997)
